Consider 1 compound from US11278555B2, “Combinational therapies for treatment of cancer comprising a bacteriochlorophyll derivative” (Yeda Research and Development Co. Ltd., priority 2016, dated 2022).

This test concerns s.c. 4T1-luc breast tumors. The test is described as follows: WST11 VTP with or without single dose CTX in mice bearing s.c. 4T1-luc tumors in the hind leg (Scheme 4). The format is in vivo, Balb/c mice. As to the method:
• (i) Bacteriochlorophyll Derivatives—The Bchl derivatives and RGD-conjugates thereof were provided by Steba Biotech (Rehovot, Israel). […] Concentration was verified by spectrophotometric measurement. STL-7012 was provided as dipotassium salt. Working solution was prepared by dissolving STL-7012 K^+ salt in 5% mannitol solution (1 mg/ml). […] WST11 was supplied as a powder and kept in the dark at −20° C. Stock was prepared by dissolving WST11 in DDW containing 5% glucose and 0.67% mannitol, aliquoted and lyophilized. Working solution was reconstituted with DDW and the concentration of solution was confirmed spectrophotometrically. Alternatively, Clinical WST11 (batch: P00611, and 10-130611) was supplied as lyophilized formulation. Material was dissolved in 5% dextrose, aliquoted and stored at −20° C. […] Aliquots were thawed, diluted with saline to a desired concentration and used on the same day at a dose of 75 mg/kg. Cyclophosphamide (CTX, Endoxan®, Baxter Oncology Gmbh, Germany) was purchased from a local pharmacy. A stock solution of 20 mg/ml was prepared by dissolving in 0.9% NaCl, aliquoted and stored at −20° C. Aliquots were thawed, diluted with saline if needed to a desired concentration and used on the same day prepared at indicated doses. • (iii) Murine cell lines—Mammary luciferase (luc)-labeled 4T1 cell line (4T1-Luc) was a kind gift from Dr. Zvi Granot (Faculty of Medicine, The Hebrew University of Jerusalem, Israel); melanoma B16-F10 cell line was obtained from the American Type Culture Collection (ATCC, Manassas, Va.); bladder MB49 cell line was a kind gift from James Allison (MSKCC, New York, USA), and luc-labeled MB49-cell line was established using the murine stem cell virus (MSCV)-puromycin-luc-GFP construct (kindly provided by Dr. Emily Cheng, Human Oncology and Pathogenesis Program, MSKCC). 4T1 and MB49 cells were maintained in DMEM medium and B16-F10 cells in RPMI medium supplemented with 1 mmol/L sodium pyruvate, 10% fetal calf serum (FCS), 250 μg/ml hygromycin, 0.06 mg/ml penicillin and 0.1 mg/ml streptomycin. The cells were grown as monolayer at 37° C. in a humidified atmosphere (5% CO2, 95% air). • (iv) Murine tumor models—Female, Balb/c mice (6-8 week old) were grafted either subcutaneously (s.c.) into the right hind leg or orthotopically with 1×10^6 4T1 cells suspended in 50 or 1000 PBS. […] Whole body imaging of luciferase-transfected tumors and metastases were recorded five minutes following 75 mg Kg^−1 intraperitoneal (i.p.) injection of D-luciferin with respective filter sets. • (vi) PDT treatment protocol: 4T1-Luc cells were grafted in the mammary pad of Balb/c mice. […] Ablation of primary tumors was assessed every 7 days by imaging the tumor's luciferase-mediated bioluminescence signal, using IVIS.

For `CCC1c2cc3[n-]c(c(CC(=O)OC)c4nc(cc5[n-]c(cc(n2)C1C)c(C(C)=O)c5C)C(C)C4CCC(=O)[O-])c(C(=O)NCCS(=O)(=O)[O-])c3C.[K+].[K+].[Pd+2]` (stereo not drawn) [WST11, Palladium 3^1-oxo-15-methoxycarbonylmethyl-rhodobacteriochlorin 13^1-(2-sulfoethyl) amide dipotassium salt], under “CTX 50 or 150 mg/kg alone, WST11 VTP at low light intensity (100 mW/cm^2) alone, or combination”, the primary tumor growth entry is “unable to suppress primary tumor growth”. Further, the lung metastases result (VTP alone, even when primary tumor completely ablated) is “most of the mice subjected to VTP alone developed lung metastases”. The “time to tumor regrowth” value (WST11 VTP at high light dose (150 mW/cm^2)) is “doubled”.
